These are literature values, as cited in patent US9175008B1, “Prodrugs of anti-platelet agents” (CELLIX BIO PRIVATE LIMITED, priority 2014, dated 2015).

The data set has as its system recurrent atherothrombotic events. Conditions: recurrent atherothrombotic events across a wide range of high-risk patients.

Regarding `CC(=O)Oc1ccccc1C(=O)O` [aspirin], the relative risk reduction result is listed as “approximately 25%”.
